Experiment [1] has as its system Mus musculus. The experiment can be described thus: Antitumor activity in BDF1 mouse bearing B16 melanoma assessed as inhibition of tumor growth at 5 mg/kg, ip relative to control. It counts as functional. To be noted: route intraperitoneal.
The subject of experiment [2] is Mus musculus. The experiment can be described thus: Antitumor activity in BDF1 mouse bearing B16 melanoma assessed as loss of body weight at 5 mg/kg, ip. Type of experiment: functional. To be noted: route intraperitoneal.
The test system of experiment [3] is Mus musculus. The experiment is described as follows: Antitumor activity in BDF1 mouse bearing L1210 leukemia assessed as survival for 30 days at 8 ug/kg, ip. Type of experiment: functional, organism-based.
The subject of another experiment is L1210. The experiment is described as follows: Antitumor activity against mouse L1210 cell line assessed as inhibition of [3H]thymidine incorporation. It counts as functional, cell-based. (In general: Uptake of a labelled nucleoside into DNA is a usual measure of proliferation.)
For experiment [4], the system named is Mus musculus. The experiment is described as follows: Antitumor activity in BDF1 mouse bearing L1210 leukemia assessed as increase in life span at 5 ug/kg, ip relative to control. Type of experiment: functional.
Experiment [5] concerns Mus musculus. The experiment is described as follows: Antitumor activity in BDF1 mouse bearing L1210 leukemia assessed as survival for 30 days at 5 ug/kg, ip. It counts as functional, organism-based.
For experiment [6], the system named is Mus musculus. The experiment can be described thus: Antitumor activity in BDF1 mouse bearing L1210 leukemia assessed as loss of body weight at 8 ug/kg, ip. It counts as functional.
For experiment [7], the system named is Mus musculus. The experiment can be described thus: Antitumor activity in BDF1 mouse bearing L1210 leukemia assessed as loss of body weight at 5 ug/kg, ip. It counts as functional.
Experiment [8] deals with Mus musculus. The experiment is described as follows: Antitumor activity in BDF1 mouse bearing B16 melanoma assessed as inhibition of tumor growth at 30 mg/kg, ip relative to control. It counts as functional. Particulars: route intraperitoneal.
Experiment [9] has as its system Mus musculus. The experiment can be described thus: Antitumor activity in BDF1 mouse bearing B16 melanoma assessed as loss of body weight at 30 mg/kg, ip. It counts as functional. Particulars: route intraperitoneal.
Experiment [10] deals with Mus musculus. The experiment can be described thus: Antitumor activity in BDF1 mouse bearing L1210 leukemia assessed as increase in life span at 8 ug/kg, ip relative to control. Type of experiment: functional.
Experiment [11] deals with Mus musculus. The experiment can be described thus: Antitumor activity in BDF1 mouse bearing B16 melanoma assessed as inhibition of tumor growth at 20 mg/kg, ip relative to control. It counts as functional. Particulars: route intraperitoneal.
The test system of experiment [12] is Mus musculus. The experiment is described as follows: Antitumor activity in BDF1 mouse bearing B16 melanoma assessed as loss of body weight at 20 mg/kg, ip. It counts as functional. To be noted: route intraperitoneal.
In experiment [13] the test system is Mus musculus. The experiment can be described thus: Antitumor activity in BDF1 mouse bearing L1210 leukemia assessed as increase in life span at 32 ug/kg, ip relative to control. Type of experiment: functional.
For experiment [14], the system named is Mus musculus. The experiment can be described thus: Antitumor activity in BDF1 mouse bearing L1210 leukemia assessed as increase in life span at 16 ug/kg, ip relative to control. It counts as functional.
The subject of experiment [15] is Mus musculus. The experiment can be described thus: Antitumor activity in BDF1 mouse bearing L1210 leukemia assessed as loss of body weight at 16 ug/kg, ip. Type of experiment: functional.
In experiment [16] the test system is Mus musculus. The experiment can be described thus: Antitumor activity in BDF1 mouse bearing L1210 leukemia assessed as survival for 30 days at 32 ug/kg, ip. It counts as functional, organism-based.
Experiment [17] has as its system Mus musculus. The experiment can be described thus: Antitumor activity in BDF1 mouse bearing L1210 leukemia assessed as loss of body weight at 32 ug/kg, ip. Type of experiment: functional.

The source made the active and inactive calls. The calls are words filed in the database; no cut-off is given here.

Turning to `COc1cccc2c1C(=O)c1c(O)c3c(c(O)c1C2=O)C[C@@](O)(C(=O)CO)C[C@@H]3O[C@H]1C[C@H](N)[C@H](O)[C@H](C)O1` [DOXORUBICIN], the inhibition in vivo – broadly, the change of the read-out against control, counted positive when it falls – at 5 mg/kg with Mus musculus [1] turned out to be 35%. Also, the Activity is -10% in the experiment with Mus musculus [2], 53% in the experiment on Mus musculus [4], -19% with Mus musculus [6] and -7% in the experiment on Mus musculus [7]. For the same molecule, the outcome in the experiment on Mus musculus [3] and in the experiment on Mus musculus [5] was inactive. The 50% inhibitory concentration (IC50) – broadly, the midpoint of a concentration-inhibition curve – in the experiment on L1210 amounted to 150 nM.

Take `CC/C=C/C/C=C/C/C=C/C/C=C/C/C=C/C/C=C/CCC(=O)N/N=C(\CO)[C@]1(O)Cc2c(O)c3c(c(O)c2[C@@H](OC2C[C@H](N)[C@H](O)[C@H](C)O2)C1)C(=O)c1c(OC)cccc1C3=O.Cl` (stereo partly specified): the inhibition in vivo at 30 mg/kg in the experiment with Mus musculus [8] was 70%. Also, the Activity in the experiment with Mus musculus [9] is -6%; with Mus musculus [10], 53%; with Mus musculus [12] it was -6%; in the experiment with Mus musculus [13] it was 80%; in the experiment with Mus musculus [14], 107%; in the experiment on Mus musculus [6] it was -2%. In addition, the Activity with Mus musculus [15] is on record as -4%; with Mus musculus [17], -11%. For the same molecule, the outcome in the experiment with Mus musculus [3] and in the experiment with Mus musculus [16] was inactive. Moreover, the inhibition in vivo at 20 mg/kg in the experiment with Mus musculus [11] was 53%. For the same molecule, the IC50 with L1210 was 1400 nM.
